Read-outs that look alike come from different tables or passages of the source.
What was measured:
[1] = system: normal T-lymphocytes; details: cited from earlier work
[2] = system: Interferon gamma production by peripheral human lymphocytes; experiment: Interferon-gamma production by human lymphocytes (buffy coat cells), EIA; format: cell-based
Protocol: It is therefore advantageous that an anti-AIDS chemotherapeutic agent is provided with the ability to induce gamma Interferon in T-lymphocytes. […] The experiments were performed in vitro, using peripheral human lymphocytes (buffy coat cells) in culture.
Buffy coat cells were prepared by centrifugation on Ficoll-Plaque gradient and washed two times. Subsequently the cells were divided and adjusted to a concentration of 5×1,000,000 cells/ml.
Levels of Interferon were defined by an Enzymeimmunoassay (EIA). Interferon gamma: 96 well flat bottom plates (Greiner, Neurtingen) were coated with a monoclonal antibody recognizing Interferon gamma. 200 μl of the supernatant sample were added per well together with Interferon gamma-peroxidase coupled (50 μl), consisting of the same antibody as used for coating. […] The enzymatic reaction is completed by a preparation containing hydrogen peroxide substrate. The reaction is stopped within 15 minutes by 100 μl of sulfuric acid per well. The amount of Interferon is defined by comparing the extinction of the test sample with a standard curve produced by known values of Interferon gamma.

[3] = system: H9-cells infected with HTLV-III; experiment: Growth of HTLV-III infected H9 cells; format: cell-based, human; details: for Cell Concentration: infected H9 cells, four days, controls infected 0.5, uninfected 1.3
Protocol: For this, the H9 cell line was used, it consisting of a cloned OKT4+ T-cell line in which the AIDS virus propagates (M. Popovic, M. G. Sarngadharan, E. Reed and R. C. Gallo; Science 224, 497-500 (1984)).
H9-cells (M. Popovic, M. G. Sarngadharan, E. Reed, R. C. Gallo, Science: 224, 1984, 497-500) were treated with Polybren® (hexadimethrinbromide available on the market; 2 μg/ml) for 30 minutes at 37° C., washed free of Polybren and infected with 2×10^8 HTLV-III virus particles (isolated from H9 cell cultures by the method of M. Popovic; see above) per 4×10^5 H9 cells. Some assays which were not treated with drugs were used as positive controls, while different concentrations of the compound to be tested (avarone or avarol and their derivatives) were added to the test samples. The HTLV-III reverse transcriptase activity of these cultures was analyzed in the manner described above.
H9-cells as well as H9-cells infected with HTLV-III were used in a concentration of 0.2×10^6 cells/ml of culture medium for the inoculating of a culture medium. After incubation for four days, the density of the H9-cells was 1.3×10^6 cells/ml, while the density of the H9-cells infected with HTLV-III was only 0.5×10^6 cells/ml; these two values formed the control values.
Thereupon samples of H9-HTLV-III cells, 0.2×10^6 cells/ml, were treated for four days with different concentrations of avarol.

[4] = system: HTLV-III p24; format: cell-based; details: for Expression of p24 (in %): none = 100
[5] = system: male NMRI mice; details: cited from earlier work
[6] = system: lymphocyte cultures; experiment: [^3 H]-dThd incorporation in lymphocyte cultures from avarol-pretreated mice; format: cell-based, mouse; details: pretreatment of mice; macrophage-containing and macrophage-depleted cultures
Source text: The effect of avarol on the lymphoid system was studied both in vitro and in vivo. […] The stimulatory influence of avarol on humoral immune responses is not accompanied by a change of the antibody-mediated hypersensitivity reaction, as measured by the Arthus reaction. No significant influence of avarol on the cellular immune system in vivo (rats or mice) was found, as taken from studies on delayed-type hypersensitivity reactions to sheep red blood cells and to oxazolone.

[7] = Lethal dose in rats; details: rat, in vivo; male Sprague-Dawley rats, treatment for 5 days; read-out: 50% lethal dose
Protocol: From previous experiments with NMRI mice, bearing L5178y cells, it is known that the chemotherapeutical dose of avarol is in the range of 1-50 mg/kg at a 50% lethal dose of 269.1 mg/kg (Muller et al., Cancer Res. 45: 4822-4826; 1985). The 50% lethal dose (treatment for 5 days) for male Sprague-Dawley rats was determined to be 235.7 mg/kg. Therefore, daily doses of avarol of 1-30 mg/kg/injection were chosen for the following in vivo studies.

[8] = system: DTH to sheep red blood cells (SRBC) in NMRI mice; experiment: Delayed-type hypersensitivity to sheep red blood cells; format: in vivo, mouse
Protocol: DTH was produced according to the method of Lagrange et al. (J. Exp. Med. 139: 528-542; 1974) and Liew (Eur. J. Immunol. 7, 714-718; 1977). Male NMRI mice (20-23 g, 10 animals/group) were immunized with 10^8 SRBC/40 μl into one foot pad (day 0). Four days later 10^9 SRBC/40 μl were injected into the other foot pad. After 24 hours, paw size was measured with a dial gauge caliper Odi-Test OOT (H. C. Kroeplin, Schluchtern, Germany). Avarol (in 0.15% [w/v] methylcellulose) was administered daily i.p. either from day -2 to +1 or from day +2 to +4. The level of DTH was expressed as foot pad increase, determined after 24 hrs; and it is given in mm. Non-treated groups were injected i.p. with methylcellulose only. Treated groups were compared with the controls using the U-test of Wilcoxon et al. (Sachs, L. Angewandte Statistik, Springer-Verlag, Berlin; 1984).

CC1=CCC[C@H]2[C@](C)(Cc3cc(O)ccc3O)[C@@H](C)CC[C@]12C [Avarol, 2-[(1R)-1,2,3,4,4a,7,8,8aα-octahydro-1β,2β,4aβ,5-tetramethyl-1-naphthylmethyl]-1,4-benzenediol]
concentration inhibiting [^3 H] dThd-incorporation rate by 50% [1]: 0.5 to 1.3 µg/mL
Titer of Interferon-gamma ([2]; 0.2 μg/ml, 0 hours, untreated 2): 4 Units/ml of supernatant
Titer of Interferon-gamma ([2]; 0.2 μg/ml, 24 hours, untreated 5): 17 Units/ml of supernatant
Titer of Interferon-gamma ([2]; 0.2 μg/ml, 48 hours, untreated 3): 24 Units/ml of supernatant
Titer of Interferon-gamma ([2]; 0.2 μg/ml, 72 hours, untreated 7): 26 Units/ml of supernatant
Titer of Interferon-gamma ([2]; 0.2 μg/ml, 96 hours, untreated 4): 21 Units/ml of supernatant
Titer of Interferon-gamma ([2]; 0.5 μg/ml, 0 hours, untreated 2): 4 Units/ml of supernatant
Titer of Interferon-gamma ([2]; 0.5 μg/ml, 24 hours, untreated 5): 23 Units/ml of supernatant
Titer of Interferon-gamma ([2]; 0.5 μg/ml, 48 hours, untreated 3): 74 Units/ml of supernatant
Titer of Interferon-gamma ([2]; 0.5 μg/ml, 72 hours, untreated 7): 89 Units/ml of supernatant
Titer of Interferon-gamma ([2]; 0.5 μg/ml, 96 hours, untreated 4): 118 Units/ml of supernatant
Titer of Interferon-gamma ([2]; 1.0 μg/ml, 0 hours, untreated 2): 3 Units/ml of supernatant
Titer of Interferon-gamma ([2]; 1.0 μg/ml, 24 hours, untreated 5): 20 Units/ml of supernatant
Titer of Interferon-gamma ([2]; 1.0 μg/ml, 48 hours, untreated 3): 52 Units/ml of supernatant
Titer of Interferon-gamma ([2]; 1.0 μg/ml, 72 hours, untreated 7): 62 Units/ml of supernatant
Titer of Interferon-gamma ([2]; 1.0 μg/ml, 96 hours, untreated 4): 73 Units/ml of supernatant
optimal dose for Interferon gamma induction ([2]; in vitro): 0.5 µg/mL
growth rate of H9-HTLV-III cells ([3]; about 0.01 μg/ml): increase the growth rate of H9-HTLV-III cells to values which lie within the range of the control
Cell Concentration ([3]; 0.1 μg/ml): 1.42e+06 mL⁻¹
Cell Concentration ([3]; 1 μg/ml): 1.09e+06 mL⁻¹
Expression of p24 (in %) ([4]; 0.1 μg/ml): 28%
Expression of p24 (in %) ([4]; 1 μg/ml): 14%
Expression of p24 (in %) ([4]; 5 μg/ml): 14%
expression of HTLV-III protein p24, in words ([4]; H9-HTLV-III cells): significant reduction
50% lethal dose ([5]; NMRI mice, previous experiments): 269.1 mg/kg
Acute toxicity LD10 ([5]; male NMRI mice, acute): 156.4 mg compound/kg
Subacute toxicity LD10 ([5]; male NMRI mice, subacute): 138.6 mg compound/kg
Subacute toxicity LD50 ([5]; male NMRI mice, subacute): 218.4 mg compound/kg
[^3 H]-dThd incorporation rate, in words [6]: higher [^3 H]-dThd incorporation rate
LD50 at 120 h [7]: 236 mg/kg
DTH to SRBC, immunosuppressive influence ([8]; day +2 to +4, doses higher than 10 mg/kg i.p.): weak but significant immunosuppressive effect
DTH to SRBC, immunosuppressive influence ([8]; day -2 to +1, up to daily doses of 30 mg/kg i.p.): no significant immunosuppressive influence
